Measured values reported in publication PMC3118575 (Bioconjugate chemistry, 2011).

Tests used:
[1] = test system: MMP- and αvβ3 integrin receptor-positive U87MG tumor; assay: In vivo NIR fluorescence imaging of U87MG tumor-bearing mice; details: for Clearance from the blood and other organs / Fluorescent signals in the tumor over time: 0.5 nmol injected
MMP-2 = assay: In vitro MMP-2 enzyme specificity; type: biochemical
U87MG tumor = assay: Ex vivo biodistribution in tumors and organs; design: species or system mice; details: tumors and organs removed after 4 h time point; n = 3
U87MG cells = assay: NIR fluorescence microscopy of fixed U87MG cells; type: cell-based, human

Q: How did the “Clearance from the blood and other organs” value ([1]; imaging for 4 h) turn out when `N=C(N)NCCC[C@@H]1NC(=O)[C@H](CCCCN)NC(=O)[C@@H](Cc2ccc(O)cc2)NC(=O)[C@H](CC(=O)O)NC(=O)CNC1=O` [compound 7, reference compound] was run?
A: Its value is “slowly cleared from the blood and other organs”.

Q: What about the “Fluorescent signals in the tumor over time” value ([1]; imaging for 4 h) of the same compound?
A: Its value is “gradually increased fluorescent signals in the tumor”.

Q: What does the source list for `CCN(CC)c1ccc2nc3ccc(N=Nc4ccc(N(C)CCCC(=O)NCCCC[C@H](NC(=O)CNC(=O)[C@H](CCCNC(=N)N)NC(=O)[C@@H](NC(=O)CNC(=O)[C@H](CC(C)C)NC(=O)[C@@H]5CCCN5C(=O)CNC(=O)CCCCC[N+]5=C(C=CC=CC=C6N(CC)c7ccc8c(S(=O)(=O)O)cc(S(=O)(=O)O)cc8c7C6(C)C)C(C)(C)c6c5ccc5c(S(=O)(=O)O)cc(S(=O)(=O)O)cc65)C(C)C)C(=O)NCC(=O)NCC(=O)NCCCC[C@@H]5NC(=O)[C@@H](Cc6ccc(O)cc6)NC(=O)[C@H](CC(=O)O)NC(=O)CNC(=O)[C@H](CCCNC(=N)N)NC5=O)cc4)cc3[n+](-c3ccccc3)c2c1` [compound 4]?
A: Recovery of fluorescence at different MMP-2 concentrations (MMP-2; MMP-2 0, 2, 5, 10, 20, 40 nM, 80 min incubation, n = 3): dependent on the MMP-2 concentration; Fluorescence recovery in the presence of MMP inhibitor (MMP-2; MMP-2 with homophenylalanine-hydroxamine acid based broad spectrum MMP inhibitor): inhibited; NIR fluorescence signal from the tumor with MMP inhibitor ([1]; 3 nmol i.v., MMP inhibitor intratumorally injected 30 min before): significantly reduced; Tumor uptake with excess unlabeled c(RGDyK) ([1]; 30 min post-injection, c(RGDyK) 200 nmol): effectively blocked; NIR fluorescent images compared to 6 ([1]; intravenous, 3 nmol of 4, from 1 h post-injection): brighter NIR fluorescent images compared to 6; Visualization of MMP expression in MMP-positive tumor ([1]; intravenous, 4 at 3 nmol, imaging for 4 h): enabled visualization of MMP expression in an MMP-positive tumor; Ex vivo biodistribution (U87MG tumor): predominantly activated in the tumors among other organs

Q: What does the source list for `CCN1C(=CC=CC=CC2=[N+](CCCCCC(=O)NCC(=O)N3CCC[C@H]3C(=O)N[C@@H](CC(C)C)C(=O)NCC(=O)N[C@H](C(=O)N[C@@H](CCCNC(=N)N)C(=O)NCC(=O)N[C@@H](CCCCN)C(=O)NCC(=O)NCC(=O)NCCCC[C@@H]3NC(=O)[C@@H](Cc4ccc(O)cc4)NC(=O)[C@H](CC(=O)O)NC(=O)CNC(=O)[C@H](CCCNC(=N)N)NC3=O)C(C)C)c3ccc4c(S(=O)(=O)O)cc(S(=O)(=O)O)cc4c3C2(C)C)C(C)(C)c2c1ccc1c(S(=O)(=O)[O-])cc(S(=O)(=O)O)cc21` [compound 5]?
A: Binding with receptor blocking by excess c(RGDyK) (U87MG cells; 30 min at 37 °C, blocking dose of c(RGDyK) 10 µM): significantly decreased binding; Fluorescent signals on cells (U87MG cells; 30 min incubation at 37 °C, without blocking): strong positive fluorescent signals on the cell membranes; Clearance from the blood and other organs ([1]; imaging for 4 h): slowly cleared from the blood and other organs; Fluorescent signals in the tumor over time ([1]; imaging for 4 h): gradually increased fluorescent signals in the tumor
